The subject of one assay is Acinetobacter. Put plainly: microbe, parasite or virus in culture. Format: cell-based. The following applies: Acinetobacter, read-out: MIC Acinetobacter.
The subject of a further assay is E. coli k12. Put plainly: microbe, parasite or virus in culture. The conditions noted are these: Escherichia coli, K12, read-out: MIC E. coli k12. It counts as cell-based.
Another assay has as its system E. coli tolc. Put plainly: microbe, parasite or virus in culture. The conditions noted are these: Escherichia coli, read-out: MIC E. coli tolc. Format: cell-based.
The subject of a further assay is Klebsiella. Put plainly: MIC against Klebsiella. It counts as cell-based. The following applies: Table 1. As for the experimental part: (§1) The following compounds have been synthesized and tested for their activities against bacteria (Table 1) and their abilities to inhibit Dxr (Table 2). MIC is determined as described in Yendapally et al. (Journal of Medicinal Chemistry 2008, 51, 1487); and IC50 is determined as described in Henriksson et al. (Journal of Biological Chemistry 2007, 282, 19905).

Another assay relates to P. aeruginosa. Description: MIC against P. aeruginosa. Format: cell-based. The following applies: Pseudomonas aeruginosa; Table 1. How it is done: as §1
A further assay relates to S. pneumonia. Put plainly: MIC against S. pneumonia. It counts as cell-based. The following applies: Table 1. As for the experimental part: as §1
The test system of the next assay is B. anthracis. Put plainly: microbe, parasite or virus in culture. The following applies: Bacillus anthracis, read-out: MIC B. anthracis. It counts as cell-based, Bacillus anthracis.
Another assay has as its system E. faecalis. Description: microbe, parasite or virus in culture. It counts as cell-based. The conditions noted are these: Enterococcus faecalis, read-out: MIC E. faecalis.
The next assay deals with S. aureus (MSSA). Put plainly: microbe, parasite or virus in culture. Format: cell-based. The following applies: Staphylococcus aureus, MSSA, read-out: MIC S. aureus (MSSA).
For another assay, the system named is MRSA NRS 70. Put plainly: microbe, parasite or virus in culture. Format: cell-based, S. aureus. The following applies: Staphylococcus aureus, read-out: MIC MRSA NRS 70.
The subject of another assay is Mtb H37Rv (ATCC 27294). Description: microbe, parasite or virus in culture. Format: cell-based, Mycobacterium tuberculosis. The conditions noted are these: Mycobacterium tuberculosis.

In patent US9593136B2 (priority 2011, dated 2017) one finds MIC data, which are given here for five compounds.

Values after ≈ are worked out from the molar mass of the structure shown. Where two headings read alike, the source gives them in different places.

For `CCOP(=O)(CCCN(OCc1ccccc1)C(C)=O)OCC` [GSJ 20 (Rotamer B)], the MIC in the assay with Acinetobacter, in the assay on E. coli k12, in the assay with E. coli tolc, in the assay on Klebsiella, against P. aeruginosa and in the assay with S. pneumonia was above 200 µg/mL each time. Moreover, the MIC in the assay on B. anthracis, with E. faecalis, in the assay on S. aureus (MSSA), in the assay with MRSA NRS 70, with Mtb H37Rv (ATCC 27294) (read-out: MIC H37 Rv) and with Mtb H37Rv (ATCC 27294) (read-out: Mtb MIC (ug/mL)) was above 200 µg/mL throughout.
Take `CCOP(=O)(CCCN(O)C(=O)Cc1ccccc1)OCC` [ERJ 91]: the MIC in the assay on Acinetobacter, in the assay with E. coli k12, with E. coli tolc, against Klebsiella, against P. aeruginosa and with S. pneumonia was above 200 µg/mL throughout. The MIC in the assay on B. anthracis is above 200 µg/mL; with E. faecalis, above 200 µg/mL; in the assay on S. aureus (MSSA), 100 µg/mL (≈ 304 µM); in the assay with MRSA NRS 70, 50 µg/mL (≈ 152 µM); in the assay with Mtb H37Rv (ATCC 27294) (read-out: MIC H37 Rv), above 200 µg/mL.
In the case of `CCOP(=O)(CCCN(OCCCc1ccc(OC)cc1)C(C)=O)OCC` [GSJ 30], the MIC in the assay with Acinetobacter, with E. coli k12, with E. coli tolc, in the assay with Klebsiella, in the assay on P. aeruginosa and with S. pneumonia was above 200 µg/mL in each case. Besides, the MIC in the assay on B. anthracis, in the assay with E. faecalis, in the assay on S. aureus (MSSA), in the assay with MRSA NRS 70, with Mtb H37Rv (ATCC 27294) (read-out: MIC H37 Rv) and in the assay on Mtb H37Rv (ATCC 27294) (read-out: Mtb MIC (ug/mL)) was above 200 µg/mL throughout.
As to `CCOP(=O)(CCCN(O)C(=O)c1ccc2ccccc2c1)OCC` [ERJ 96], the MIC in the assay with Acinetobacter, in the assay on E. coli k12, in the assay with E. coli tolc, in the assay on Klebsiella, in the assay with P. aeruginosa and in the assay on S. pneumonia was above 200 µg/mL throughout. The MIC with B. anthracis, in the assay with E. faecalis, with S. aureus (MSSA), in the assay on MRSA NRS 70 and in the assay on Mtb H37Rv (ATCC 27294) (read-out: MIC H37 Rv) was above 200 µg/mL throughout.
Turning to `CCOP(=O)(CCCN(O)C(=O)CCc1ccccc1)OCC` [ERJ 70], the MIC with Acinetobacter, in the assay on E. coli k12, in the assay with E. coli tolc, against Klebsiella, against P. aeruginosa and against S. pneumonia was above 200 µg/mL throughout. For the same compound, the MIC in the assay with B. anthracis is above 200 µg/mL; in the assay with E. faecalis it was above 200 µg/mL; with S. aureus (MSSA), above 200 µg/mL; in the assay on MRSA NRS 70 it was above 200 µg/mL; in the assay with Mtb H37Rv (ATCC 27294) (read-out: MIC H37 Rv), above 200 µg/mL; in the assay on Mtb H37Rv (ATCC 27294) (read-out: Mtb MIC (ug/mL) (7H9)), 3.12 µg/mL (≈ 9.1 µM). For the same compound, in the assay with Mtb H37Rv (ATCC 27294) (read-out: Mtb MIC (ug/mL) (GAST)), the MIC was above 200 µg/mL.
